US10221152B2 (priority 2013, dated 2019)
Values after ≈ are worked out from the molar mass of the structure shown. Structures can show the parent of a compound that is named as a salt. Where two headings read alike, the source gives them in different places.

Tests used:
[1] = tested on: H1N1 WSN viral strain; set-up: species or system BALB/c mice; conditions: mouse, in vivo, po
[2] = tested on: Influenza A/WSN/33 (H1N1); assay: microbe, parasite or virus in culture; format: cell-based, Influenza A virus; conditions: for EC50: read-out: H1N1 WSN EC50
[3] = tested on: influenza virus (H3N2); assay: organism not typed; format: cell-based, Influenza A virus; conditions: for EC50: read-out: H3N2 EC50
[4] = tested on: MDCK cells
[5] = tested on: influenza virus (H1N1); assay: organism not typed; format: cell-based, Influenza A virus

CCOC(=O)C1=C[C@@H](OC(CC)CC)[C@H](NC(C)=O)[C@@H](N)C1 [Tamiflu]
survival rate of mice [1]: 100% | survival rate of mice ([1]; 0.1 mg/kg): 46.7%

NC(=O)c1ncn([C@@H]2O[C@H](CO)[C@@H](O)[C@H]2O)n1 [Ribavirin, reference compound]
EC50 ([2]; Influenza A virus): 3.12 µg/mL (≈ 12.8 µM) | EC50 [3]: 12.5 µg/mL (≈ 51.2 µM)

COc1c(C)c2c(c(O)c1C/C=C(\C)CCC(=O)OCCN1CCOCC1)C(=O)OC2 [MPM-N, mycophenolate mofetil hydrochloride]
Minimal Inhibitory Concentration (MIC), WSN ([2]; hydrochloride): 0.0488 µg/mL | survival rate of mice [1]: 23.3%

COc1c(C)c2c(c(O)c1C/C=C(\C)CCC(=O)OCCN1CCOCC1)C(=O)OC2 [MPM, 2-morpholinoethyl(E)-6-(1,3-dihydro-4-hydroxy-6-methoxy-7-methyl-3-oxo-5-isobenzofuranyl)-4-methyl-4-hexenoate]
toxicity to cells [4]: nontoxic to cells | antiviral activity against WSN influenza virus [2]: active | cell survival (MTT), D + V [2]: ++++ (key: 0˜25% cell survival is recorded as +/−; 25˜50% cell survival is recorded as +; 50˜75% cell survival is recorded as ++; 75˜100% cell survival is recorded as +++; >100% cell survival is recorded as ++++) | EC50 ([2]; Influenza A virus): 0.098 µg/mL (≈ 0.226 µM) | MIC ([2]; Influenza A virus, read-out: Minimal Inhibitory Concentration (MIC), WSN): 0.097 µg/mL (≈ 0.224 µM) | EC50 [3]: 1.56 µg/mL (≈ 3.6 µM) | MIC ([3]; read-out: Minimal Inhibitory Concentration (MIC), H3N2): 1.56 µg/mL (≈ 3.6 µM) | survival rate in MDCK cells [5]: 75% | MIC ([5]; read-out: Minimal Inhibitory Concentration (MIC), H1N1): 0.195 µg/mL (≈ 0.45 µM)
